Measurements as given in patent US20100310591A1 (priority 2009, published 2010).
Where “and” joins values, the source holds several entries; their conditions need not be identical. Identical values can stand only once. Like-named read-outs stand apart in the source and are kept apart here. Non-standard residues stand in square brackets, D forms with d. Ava = NCCCCC(=O)O

Legend:
[1] = system: TPc9.1 T hybridoma with CH27 antigen presenting cells; test: T hybridoma response assay (APC + T hybridoma, HT-2 [3H]TdR uptake readout); format: cell-based, murine; details: for EC50: serial 1:4 dilutions from 3 μM, 24 hr stimulation
Procedure: Biological Activities of Hybrid Peptides [00103) The biological activities of the series of peptides listed in Table I were determined with the T hybridoma response assay. A T cell hybridoma which is specific to the hornworm moth cytochrome C epitope IAYLKQATAK (SEQ ID NO: 8) was stimulated with that antigenic peptide or with members of the series of hybrids of the antigenic peptide and the core Ii-Key sequence listed in Table I. The hybrids were joined with spacers of various lengths. The spacers contained either amino acids in the natural sequence of the Ii protein, or methylene (—CH2—) groups of 5-amino-n-valeric acid (ava; 5-aminopentanoic acid). Cultures of an antigen presenting cell and T cell hybridoma were incubated with serial 1:4 dilutions of the antigenic peptide, from 3 μM. Response was determined by measuring tritiated thymidine uptake by an HT-2 culture to which supernatants of the antigenic stimulation culture (24 hr stimulation period) had been transferred (see, Table 2). The endpoint for half maximal response to Hybrid 1, the antigenic peptide, was about 20 nM. The endpoint for half maximal stimulation with Hybrids 5 and 2 was about 50 pM.
For this assay the following components were added at the same time of the primary culture: (a) The hybrid peptide containing the antigenic epitope (Table I); (b) mitomycin C-treated, MHC class II-positive antigen presenting cells (APC) with the MHC class II allele required for binding of the specific antigenic peptide and its presentation to the antigenic peptide-specific T cell hybridoma; (c) MHC class II allele-restricted T cell hybridoma specific for the antigenic peptide and the MHC class II allele restricting its presentation. At the end of the incubation of this primary culture, an aliquot of its supernatant was transferred into a second culture well for incubation with an interleukin-dependent lymphoblastoid cell line. The degree of stimulation of that second indicator cell by the interleukins which had been released from the activated T cell hybridoma in the primary culture was measured by quantitating tritiated thymidine deoxyribose {[^3H]TdR} uptake into the DNA of the HT-2 indicator cells of that second culture.
The hybrids between Ii-Key core sequence LRMK (SEQ ID NO: 3) and PGCC95-104, pigeon cytochrome C 95-104, IAYLKQATAK (SEQ ID NO: 8) are presented by E^k. The peptides were dissolved in phosphate-buffered saline (PBS; 0.01 M sodium phosphate buffer, pH 7.2, 0.1 M NaCl). The solutions were sterilized by filtration. The TPc9.1 T hybridoma is specific for pigeon cytochrome C 81-104 peptide presented on the murine class II MHC allele E^k. The CH27 B cell lymphoma line which expresses H-2^k alleles was used as the antigen presenting cell.
Antigenic peptide-specific T cell activation was measured by the following procedure. Mitomycin C-treated CH27 cells (A^kE^k) APC were generated by incubating 5.×10^6 cells/mL for 20 min at 37° C. with 0.025 mg/mL of mitomycin C (Sigma) in Dulbecco's Modified Eagle's Medium (DMEM)/10 mM N-2 (hydroxyethylpiperazine-N′[2-ethanesulfonic acid] (HEPES), followed by two washes with four volumes of DMEM-5% fetal calf serum (FCS), 10 mM HEPES. T cell hybridomas were irradiated 2200 rads before each assay.
For the primary culture assay, 5×10^4 mitomycin C-treated APC, 5×10^4 T hybridoma cells and serial 1:4 dilutions from 3 uM of the peptides containing antigenic epitopes were cultured at pH 7.2-7.4, in complete DMEM-5% FCS, 10 mM HEPES, 1× nonessential amino acids (Sigma), 1 mM sodium pyruvate, 2 mM L-glutamine. 100 U/mL penicillin G, 100 μg/mL streptomycin sulfate, 5×10^−5 M 2-mercaptoethanol (2-ME). Wells containing only T hybridoma cells (T)+APC were included to monitor for background T cell activation; and wells containing T+APC+antigenic peptide were included to monitor for non-specific T hybridoma activation by each AE101 series peptide. […]

[2] = system: CD4+ T cells (CD8+ depleted PBMC of rHA-responsive donors); format: cell-based, human
[3] = read-out: endpoint for half maximal stimulation

Substance | activity of hybrid (in words) [1] | immunological response to the antigenic epitope (T cell proliferative response) ([1]; Conc. 0.01 nM) | immunological response to the antigenic epitope (T cell proliferative response) ([1]; Conc. 0.05 nM) | immunological response to the antigenic epitope (T cell proliferative response) ([1]; Conc. 0.18 nM) | immunological response to the antigenic epitope (T cell proliferative response) ([1]; Conc. 0.73 nM) | immunological response to the antigenic epitope (T cell proliferative response) ([1]; Conc. 3 nM) | immunological response to the antigenic epitope (T cell proliferative response) ([1]; Conc. 12 nM) | immunological response to the antigenic epitope (T cell proliferative response) ([1]; Conc. 47 nM) | immunological response to the antigenic epitope (T cell proliferative response) ([1]; Conc. 188 nM) | immunological response to the antigenic epitope (T cell proliferative response) ([1]; Conc. 750 nM) | immunological response to the antigenic epitope (T cell proliferative response) ([1]; Conc. 3000 nM) | EC50 [1, 3] [nM] | in vitro CD4 response, fold above background [2] | EC50 ([1]; read-out: endpoint for half maximal response) [nM] | recognition frequency among donors [2] [%]
Ac-LRMK (SEQ ID NO: 3)-5-aminopentanoyl-5-aminopentanoyl-IAYLKQATAK (SEQ ID NO: 8)-NH2 (Ac-LRMK[Ava][Ava]IAYLKQATAK-NH2; SMILES CC[C@H](C)[C@H](NC(=O)CCCCNC(=O)CCCCNC(=O)[C@H](CCCCN)NC(=O)[C@H](CCSC)NC(=O)[C@H](CCCNC(=N)N)NC(=O)[C@H](CC(C)C)NC(C)=O)C(=O)N[C@@H](C)C(=O)N[C@@H](Cc1ccc(O)cc1)C(=O)N[C@@H](CC(C)C)C(=O)N[C@@H](CCCCN)C(=O)N[C@@H](CCC(N)=O)C(=O)N[C@@H](C)C(=O)N[C@H](C(=O)N[C@@H](C)C(=O)N[C@@H](CCCCN)C(N)=O)[C@@H](C)O) [Hybrid 3] | comparable to those with the natural sequence of Ii protein | 0.6 thousands of counts per minute | 5.3 thousands of counts per minute | 21.6 thousands of counts per minute | 22.3 thousands of counts per minute | 27.9 thousands of counts per minute | 29.5 thousands of counts per minute | 26.2 thousands of counts per minute | 26.2 thousands of counts per minute | 31.7 thousands of counts per minute | 31.9 thousands of counts per minute |  |  |  | 
Ac-LRMK (SEQ ID NO: 3)-5-aminopentanoyl-IAYLKQATAK (SEQ ID NO: 8)-NH2 (Ac-LRMK[Ava]IAYLKQATAK-NH2; SMILES CC[C@H](C)[C@H](NC(=O)CCCCNC(=O)[C@H](CCCCN)NC(=O)[C@H](CCSC)NC(=O)[C@H](CCCNC(=N)N)NC(=O)[C@H](CC(C)C)NC(C)=O)C(=O)N[C@@H](C)C(=O)N[C@@H](Cc1ccc(O)cc1)C(=O)N[C@@H](CC(C)C)C(=O)N[C@@H](CCCCN)C(=O)N[C@@H](CCC(N)=O)C(=O)N[C@@H](C)C(=O)N[C@H](C(=O)N[C@@H](C)C(=O)N[C@@H](CCCCN)C(N)=O)[C@@H](C)O) [Hybrid 2] | comparable to those with the natural sequence of Ii protein | 3.4 thousands of counts per minute | 19.8 thousands of counts per minute | 31.2 thousands of counts per minute | 38.8 thousands of counts per minute | 30.1 thousands of counts per minute | 21.9 thousands of counts per minute | 20.8 thousands of counts per minute | 27.2 thousands of counts per minute | 23.9 thousands of counts per minute | 25.1 thousands of counts per minute | ~0.05 |  |  | 
Ac-LRMKLPKSAKPVSKIAYLKQATAK-NH2 (SEQ ID NO: 11) [Hybrid 6] | sub-optimal activity | 2.9 thousands of counts per minute | 2.4 thousands of counts per minute | 11.9 thousands of counts per minute | 28.7 thousands of counts per minute | 31.4 thousands of counts per minute | 39.2 thousands of counts per minute | 25.3 thousands of counts per minute | 26.9 thousands of counts per minute | 23.4 thousands of counts per minute | 21.5 thousands of counts per minute |  |  |  | 
Ac-LRMKLPKSIAYLKQATAK-NH2 (SEQ ID NO: 9) [Hybrid 4] |  | 2.5 thousands of counts per minute | 5.8 thousands of counts per minute | 9.1 thousands of counts per minute | 19.2 thousands of counts per minute | 19.0 thousands of counts per minute | 23.1 thousands of counts per minute | 19.5 thousands of counts per minute | 20.8 thousands of counts per minute | 23.3 thousands of counts per minute | 25.2 thousands of counts per minute |  |  |  | 
FFRNVVWLIKKNSTYPT [BEI 28] |  |  |  |  |  |  |  |  |  |  |  |  | 3.7 fold above background |  | 
IAYLKQATAK [Hybrid 1, Ac-IAYLKQATAK—NH2 (SEQ ID NO: 8), reference compound] |  | 0 thousands of counts per minute | 0 thousands of counts per minute | 0 thousands of counts per minute | 4 thousands of counts per minute | 0.4 thousands of counts per minute | 10.9 thousands of counts per minute | 29.5 thousands of counts per minute | 32.4 thousands of counts per minute | 27.8 thousands of counts per minute | 25.2 thousands of counts per minute |  |  | ~20 | 
IGECPKYVKSNRLVLAT [BEI 54] |  |  |  |  |  |  |  |  |  |  |  |  | 3.9 fold above background and 3.8 fold above background |  | 
KMEDGFLDVWTYNAELL [BEI 73] |  |  |  |  |  |  |  |  |  |  |  |  | 15 fold above background |  | 
KRGLFGAIAGFIEGGWQ [BEI 59] |  |  |  |  |  |  |  |  |  |  |  |  |  |  | 21
LRMKLPKSAKPIAYLKQATAK [Hybrid 5] |  | 14.3 thousands of counts per minute | 21.3 thousands of counts per minute | 36.7 thousands of counts per minute | 30.1 thousands of counts per minute | 31.4 thousands of counts per minute | 44.6 thousands of counts per minute | 26.2 thousands of counts per minute | 29.1 thousands of counts per minute | 27.5 thousands of counts per minute | 27.3 thousands of counts per minute | ~0.05 |  |  | 
